Reference: US8877437B1, “Methods of using dyes in association with nucleic acid staining or detection” (Biotium, Inc., priority 2009, dated 2014)
Like-named read-outs stand apart in the source and are kept apart here.

Assays:
cells = details: cited from earlier work
[1] = cited from earlier work
aquatic life = details: in vivo; cited from earlier work
[2] = Stability of dye in gel electrophoresis buffer (room temperature, microwave heating); assay type: physicochemical
[3] = Hydrolytic and thermal stability for pre-cast gel preparation and storage; assay type: physicochemical
Description: In a gel electrophoresis application, an agarose gel may be prepared by heating (via microwave, for example) a suspension of agarose powder in an electrophoresis buffer, such as lithium borate buffer, thereby producing a hot agarose solution, pouring the solution onto a slab, and cooling the solution, thereby producing a useful gel. […] For example, in a pre-cast gel staining application, SYBR Green I dye is generally combined with an agarose solution after the initial agarose suspension has been heated and the resulting agarose solution has been cooled as much as possible. Combining the SYBR Green I dye with the agarose solution in this manner may be a delicate task, as if the temperature of the agarose solution is too high, the dye my decompose, and if the temperature of the agarose solution is too low, the agarose solution may gel up such that the dye and the solution are inadequately combined or mixed. Further by way of example, in a pre-cast gel staining application, a pre-cast gel prepared with SYBR Green I is generally used within 24 hours, as it may lose utility thereafter. […] This dye may offer sufficient to exceptional stability, as well as low or minimal background fluorescence relative to EB and low or minimal toxicity relative to EB, as further described below.

[4] = test not named; cited from earlier work
nucleic acid = details: cited from earlier work
[5] = pre-cast gel containing the dye

CCCN(CCCN(C)C)c1cc(/C=C2/Sc3ccccc3N2C)c2ccccc2[n+]1-c1ccccc1 [SYBR Green I]
cytotoxicity (cells): cytotoxic at relatively high concentrations
time within which pre-cast gel is used before losing utility [1, 5]: ≤ 24 h

Nc1ccc2c(c1)c(-c1ccccc1)[n+](CCCCCC(=O)NCCCOCCOCCOCCCNC(=O)CCCCC[n+]1c(-c3ccccc3)c3cc(N)ccc3c3ccc(N)cc31)c1cc(N)ccc21.[I-].[I-] [GelRed]
cytotoxicity (cells): noncytotoxic
safety to aquatic life (aquatic life): safe to aquatic life

CN(C)c1ccc2cc3ccc(N(C)C)cc3[n+](CCCCCC(=O)NCCCOCCOCCOCCCNC(=O)CCCCC[n+]3c4cc(N(C)C)ccc4cc4ccc(N(C)C)cc43)c2c1.[I-].[I-] [GelGreen]
cytotoxicity (cells): noncytotoxic
safety to aquatic life (aquatic life): safe to aquatic life

Nc1ccc2c(c1)c(-c1ccccc1)[n+](CCCCCC(=O)NCCCOCCOCCOCCCNC(=O)CCCCC[n+]1c(-c3ccccc3)c3cc(N)ccc3c3ccc(N)cc31)c1cc(N)ccc21 [Dye No. 35]
time heated in a microwave oven without decomposition ([2]; in TBE buffer): at least 10 minutes
time stable in electrophoresis buffer ([2]; lithium borate buffer, room temperature): at least 6 months
hydrolytic and thermal stability for preparation of a pre-cast gel [3]: sufficient hydrolytic and thermal stability
storage of pre-cast gel without loss of performance [3, 5]: at least 3 months

CCCN1C=C/C(=C\c2sc3ccccc3[n+]2C)c2ccccc21 [SYBR Safe]
cytotoxicity (cells): cytotoxic at relatively high concentrations
safety to aquatic life (aquatic life): safe to aquatic life

CC[n+]1c(-c2ccccc2)c2cc(N)ccc2c2ccc(N)cc21 [EB, ethidium bromide]
mutagenicity [4]: powerful mutagen
hydrolytic and thermal stability for preparation of a pre-cast gel ([1]; reference dyes, general statement): sufficiently stable, both hydrolytically and thermally

CN(C)c1ccc2cc3ccc(N(C)C)cc3nc2c1 [AO, Acridine orange]
affinity for nucleic acid (nucleic acid): very low
